Paper PMC4992025, “A Colorimetric Microplate Assay for DNA-Binding Activity of His-Tagged MutS Protein” (Molecular Biotechnology, 2016)

Molecular target: T1, TthMutS (Thermus thermophilus, UniProt Q56239)
T1 construct: gene mutS; N-terminal His-tag translational fusion, tag kept; expressed in E. coli BL21(DE3)pLysS; IMAC purified; immobilized on nickel plate; 92 kDa monomer (stated for MutS generally)
T1 sequence (Q56239 2-819): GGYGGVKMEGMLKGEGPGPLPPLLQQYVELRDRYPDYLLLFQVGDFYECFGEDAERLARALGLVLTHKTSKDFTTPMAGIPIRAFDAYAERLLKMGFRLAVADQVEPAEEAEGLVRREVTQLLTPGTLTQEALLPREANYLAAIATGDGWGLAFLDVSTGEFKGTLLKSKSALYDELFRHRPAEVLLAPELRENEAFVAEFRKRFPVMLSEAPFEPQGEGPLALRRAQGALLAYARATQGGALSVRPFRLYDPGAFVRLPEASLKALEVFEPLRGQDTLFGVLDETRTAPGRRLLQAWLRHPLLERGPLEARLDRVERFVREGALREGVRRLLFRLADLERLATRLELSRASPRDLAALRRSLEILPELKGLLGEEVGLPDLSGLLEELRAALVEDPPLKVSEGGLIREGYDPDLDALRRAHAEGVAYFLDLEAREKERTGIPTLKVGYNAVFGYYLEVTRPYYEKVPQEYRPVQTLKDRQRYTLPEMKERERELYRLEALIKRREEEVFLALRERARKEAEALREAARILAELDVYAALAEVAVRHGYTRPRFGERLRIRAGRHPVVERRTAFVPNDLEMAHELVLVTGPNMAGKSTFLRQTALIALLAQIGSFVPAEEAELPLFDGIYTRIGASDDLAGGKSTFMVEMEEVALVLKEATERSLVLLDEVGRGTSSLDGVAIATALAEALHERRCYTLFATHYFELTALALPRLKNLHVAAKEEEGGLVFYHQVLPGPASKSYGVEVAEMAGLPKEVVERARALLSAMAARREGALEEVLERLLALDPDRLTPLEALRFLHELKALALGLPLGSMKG
Assay: colorimetric nickel-plate DNA mismatch binding assay (A620)
Assay type: biochemical
Conditions: 1 mM ADP; 300 mM salt (PBSx2); room temperature; immobilized his-tagged protein; modulator of TG49 mismatch versus TA49 DNA binding

Nc1ncnc2c1ncn2[C@@H]1O[C@H](COP(=O)(O)OP(=O)(O)O)[C@@H](O)[C@H]1O [ADP]
colorimetric nickel-plate DNA mismatch binding assay (A620): In the presence of ADP, the specificity of MutS from T. thermophilus strongly increased
